Assay results as given in patent US10214502B2, “Method of inhibiting apolipoprotein-E expression while increasing expression of at least one of LDL-receptor protein or AbcA1 protein comprising administering a small compound” (California State University, Fresno, priority 2016, dated 2019).
“Also recorded” adds a separate entry of the source.

Columns and labels:
LDLR = assay: SDS-PAGE/Western blot of LDLR expression in E3 astrocyte cells; assay type: cell-based, mouse; settings: 10 μM, 24 hrs, Western blot, FIGS. 6 and 7
Procedure: Experiments were set up to test whether the claimed compounds increase LDLR expression in cortical astrocyte cells. The experiments involved treating mouse cortical astrocyte cells (E3 astrocyte cells) with the claimed compounds at 10 μM concentration for an incubation time of 24 hrs. DMSO solvent was used as a negative control, because the compounds were dissolved in DMSO when applied to the cells.
(§1) Western blot protocol and analysis was used to determine the LDLR levels in the E3 astrocyte cells. The western blot, otherwise known as a protein immunoblot, is a widely used analytical technique used to detect specific proteins in a cell culture or tissue sample. It uses gel electrophoresis to separate proteins by 3-D structure or denatured proteins by the length of the polypeptide. The proteins are then transferred to a membrane (typically nitrocellulose or PVDF), where they are stained with antibodies specific to the target protein. […] FIGS. 6 and 7 show gel images showing the effects the claimed compounds have on the target proteins. The protein bands show the presence and amount of each target protein present in the media from treated cells (compound numbers shown in the column headers).
(§2) In this case, after the 24-hour culture period, the treated cell media from cells treated with each respective compound were run by electrophoresis on polyacrylamide gel containing sodium dodecyl sulfate (SDS). The proteins from the SDS-PAGE process were then transferred to a nitrocellulose […] and stained.
(§3) FIGS. 6 and 7 show the presence of the following proteins in mouse E3 astrocyte cells: AbcA1, LDLR, ApoE3, and GAPDH. The GAPDH protein serves as the loading control protein for the western blot analysis. For each of the claimed compounds, FIGS. 6 and 7 show three samples run to determine the presence and amount of each indicated protein. The three samples for each treatment compound are indicated by the line under the compound number—the line stretches across three columns of protein bands.
(§4) The E3 astrocyte cells (1.6×10^4 cells/96-well plate) were grown for 1 day in RPMI, followed by a 24 hour equilibration in serum-free Opti-MEM (Life Technologies). Treatments were carried out in triplicate with […] of fresh Opti-MEM containing 10 μM of compound or vehicle (0.1% DMSO) for 24 hours. After the incubation time, the cellular media was collected as samples.
(§5) The collected samples were prepared for SDS-PAGE and western blot analysis by centrifuging and then extracting the protein by TCA-precipitation. The extracted protein was then resuspended in a Tris buffer.
(§6) After incubation and collection, the samples were run on a SDS-polyacrylamide gel (10% SDS). The SDS-polyacrylamide gel comprises the following:
(§7) Each sample was prepared to run on the SDS-polyacrylamide gel. About 20 μL of each sample was prepared to be run in the gel. The samples were prepared comprising the following:
(§8) The SDS-PAGE process was run with SDS-PAGE running buffer (Tris base, glycine, and 10% SDS) at 150 V until the dye front reached the bottom of the gel.
(§9) For the western blot portion of the analysis, the separated protein bands in the gel are then transferred to a nitrocellulose membrane by methods well known in the art. Following the western blot transfer, the blot is rinsed several times with dH2O to remove the salts. After blocking unreacted sites on the nitrocellulose membrane, all protein bands are stained with 0.5% Ponceau S (0.5 g Ponceau S, 1 ml Glacial HAc, 99 ml dH2O) and the target protein antibody.
(§10) The antibodies used for staining AbcA1 were obtained from Novus (NB100-2068). The antibodies used for staining LDLR were obtained from MBL International (JM-3839). The antibodies used for staining intracellular apoE were obtained from Meridian Life Science (K74180B). The antibodies used for staining GAPDH were obtained from Santa Cruz (sc-25778).

apoE3 = assay: ELISA of apoE3 levels in conditioned media of compound-treated mouse cortical astrocyte cells; assay type: cell-based; settings: 10 μM compound, 24 hours, normalized to cell protein, relative to DMSO treated cells
Procedure: ApoE inhibition can be readily determined by any one of several assays and techniques known to those of ordinary skill in the art, including the enzyme-linked immunosorbant assay (ELISA). In the experimental results shown in Table 2 and FIG. 5, the ELISA assay was carried out on cortical astrocyte cells from mice. Astrocyte cells produce apoE, LDLR and AbcA1 proteins.
The experiments involved treating mouse cortical astrocyte cells with the claimed compounds at 10 μM concentration for an incubation time of 24 hrs. DMSO solvent was used as a negative control, because the compounds were dissolved in DMSO when applied to the cells.
The ELISA technique involves immobilizing an apoE-specific capture antibody to a 96-well plate, addition of sample (conditioned medium from mouse cortical astrocyte cells treated with the compound for 24 hours), and detection of the bound apoE using a second apoE-specific biotinylated antibody and streptavidin-HRP.
The Mabtech ELISA kit detects the presence of the three apoE isoforms: apoE2, apoE3, and apoE4.
To obtain the data shown in Table 2 and FIG. 5, the mouse cortical astrocyte cells were maintained in DMEM medium (Invitrogen) supplemented with 10 mM HEPES, 1 mM sodium pyruvate, 4.5 g/L glucose, 1% penicillin/streptomycin, and 10% fetal bovine growth serum (Invitrogen) at 37° C., with 5% CO2.
The cells (6×10^4 cells/24-well plate) were grown for 1 day in RPMI, followed by a 24 hour equilibration in serum-free Opti-MEM (Life Technologies). Treatments were carried out in triplicate with […] of fresh Opti-MEM containing 10 μM of compound or vehicle (0.1% DMSO) for 24 hours. […] ApoE concentration in the sample was calculated based on a standard curve derived using known amounts of purified apoE (from Biodesign).
The protein levels in the cells in the 24-well plates were measured using BCA Protein Assay Kit (from Pierce) and used to normalize the data. […] Sample apoE3 concentrations were represented relative to the DMSO treated cells.
The bars in FIG. 5 reflect the respective mean level apoE3 in the media for each compound with an indication of one […].

AbcA1 = assay: SDS-PAGE/Western blot of AbcA1 expression in E3 astrocyte cells; assay type: cell-based, mouse; settings: 10 μM, 24 hrs, Western blot, FIGS. 6 and 7
Excerpt: as §1, §2, §3
AbcA1 protein plays a key role in regulating cholesterol in biological systems and therefore affects amyloid beta plaque formation. The goal of the biological screen (results shown in FIGS. 6 and 7) was to find compounds that prevent amyloid beta (Aβ) plaque formation, one of the deleterious causes of Alzheimer's Disease.
as §4, §5, §6, §7, §8, §9, §10

intracellular apoE = assay: SDS-PAGE/Western blot of intracellular apoE levels in E3 astrocyte cells; assay type: cell-based, mouse; settings: 10 μM, 24 hrs, Western blot, FIGS. 6 and 7
Excerpt: as §1, §2
FIGS. 6 and 7 show the presence of the following proteins in mouse E3 astrocyte cells: AbcA1, LDLR, ApoE3, and GAPDH. […]
Intracellular apoE levels as measured in FIGS. 6 and 7 are the amounts of apoE inside of cells. […]

In the case of CCN(CC)Cc1ccc2ccccc2c1 [Compound 140], the “LDLR expression (amount of LDLR protein) compared to the DMSO control” value (from here on “LDLR expression … compared to the DMSO control”) (LDLR) is reported as “increased; also recorded: increasing LDLR expression slightly”, the “ApoE3 Levels in Cell Media, Average of Three Tests” value (“ApoE3 Levels in Cell Media, Average” for short) (apoE3) is reported as 90.9673 % of the DMSO control and the “ApoE3 Levels in Cell Media, Test 1” value (apoE3) is reported as 91.46 % of the DMSO control. For the same molecule, the “ApoE3 Levels in Cell Media, Test 2” value (apoE3) was 97.9104 % of the DMSO control, the “ApoE3 Levels in Cell Media, Test 3” value (apoE3) was 83.54 % of the DMSO control and the “AbcA1 expression compared to the DMSO control” value (AbcA1) was “increases AbcA1 expression significantly; also recorded: increase”.

With CCCCN(CCCC)Cc1ccc2ccccc2c1 [Compound 139] the “LDLR expression … compared to the DMSO control” value (LDLR) was “increased”, the “ApoE3 Levels in Cell Media, Average” value (apoE3) was 74.779 % of the DMSO control and the “ApoE3 Levels in Cell Media, Test 1” value (apoE3) was 67.21 % of the DMSO control. The “ApoE3 Levels in Cell Media, Test 2” value (apoE3) was 81.69 % of the DMSO control, the “ApoE3 Levels in Cell Media, Test 3” value (apoE3) was 75.44 % of the DMSO control and the “AbcA1 expression compared to the DMSO control” value (AbcA1) was “decreases AbcA1 expression significantly; also recorded: decrease”.

For O=S(=O)(Nc1ccc(Br)cc1)c1ccc2ccccc2c1 [Compound 103], the “LDLR expression … compared to the DMSO control” value (LDLR) was “increased”, the “ApoE3 Levels in Cell Media, Average” value (apoE3) was 109.1222 % of the DMSO control and the “ApoE3 Levels in Cell Media, Test 1” value (apoE3) was 84.78 % of the DMSO control. For the same molecule, the “ApoE3 Levels in Cell Media, Test 2” value (apoE3) was 113.1319 % of the DMSO control, the “ApoE3 Levels in Cell Media, Test 3” value (apoE3) was 129.4577 % of the DMSO control and the “AbcA1 expression compared to the DMSO control” value (AbcA1) was “increase”.

O=S(=O)(NCc1ccccc1)c1cccc2ccccc12 [Compound 125] was tested, and the “LDLR expression … compared to the DMSO control” value (LDLR) was “increased”, the “ApoE3 Levels in Cell Media, Average” value (apoE3) was 88.78 % of the DMSO control and the “ApoE3 Levels in Cell Media, Test 1” value (apoE3) was 82.44 % of the DMSO control. The “ApoE3 Levels in Cell Media, Test 2” value (apoE3) was 91.39 % of the DMSO control, the “ApoE3 Levels in Cell Media, Test 3” value (apoE3) was 92.51 % of the DMSO control and the “AbcA1 expression compared to the DMSO control” value (AbcA1) was “increase”.

For CCCCN(CCCC)S(=O)(=O)c1cccc2ccccc12 [Compound 127, naphthalene-1-sulfonic acid dibutylamide], the “intracellular apoE expression/levels compared to the DMSO control” value (intracellular apoE) was “decreasing”, the “LDLR expression … compared to the DMSO control” value (LDLR) was “increased” and the “ApoE3 Levels in Cell Media, Average” value (apoE3) was 75.73 % of the DMSO control. The “ApoE3 Levels in Cell Media, Test 1” value (apoE3) was 75.36 % of the DMSO control, the “ApoE3 Levels in Cell Media, Test 2” value (apoE3) was 78.18 % of the DMSO control and the “ApoE3 Levels in Cell Media, Test 3” value (apoE3) was 73.66 % of the DMSO control. The “AbcA1 expression compared to the DMSO control” value (AbcA1) was “increases”.

O=S(=O)(c1ccc(-c2ccccc2)cc1)N1CCOCC1 [Compound 134] was tested, and the “LDLR expression … compared to the DMSO control” value (LDLR) was “increased”, the “ApoE3 Levels in Cell Media, Average” value (apoE3) was 84.75 % of the DMSO control and the “ApoE3 Levels in Cell Media, Test 1” value (apoE3) was 81.07 % of the DMSO control. For the same molecule, the “ApoE3 Levels in Cell Media, Test 2” value (apoE3) was 90.3 % of the DMSO control, the “ApoE3 Levels in Cell Media, Test 3” value (apoE3) was 82.89 % of the DMSO control and the “AbcA1 expression compared to the DMSO control” value (AbcA1) was “increase”.

In the case of O=C(Nc1ccccc1)c1ccc2ccccc2c1 [Compound 98], the “ApoE3 Levels in Cell Media, Average” value (apoE3) is reported as 76.25 % of the DMSO control, the “ApoE3 Levels in Cell Media, Test 1” value (apoE3) is reported as 74.22 % of the DMSO control and the “ApoE3 Levels in Cell Media, Test 2” value (apoE3) is reported as 79 % of the DMSO control. For the same molecule, the “ApoE3 Levels in Cell Media, Test 3” value (apoE3) was 75.5362 % of the DMSO control and the “AbcA1 expression compared to the DMSO control” value (AbcA1) was “decrease”.
